Assay results reported in patent US12070033B1, “Aquatic herbicide having non-herbicidal functional ingredients” (SePRO Corporation, priority 2019, dated 2024).

Tested on: hydrilla
Test: Total phosphorus extracted from hydrilla and from the water in which it was located
Format: in vivo, Hydrilla verticillata
Settings: 5 ppm dipotassium endothall
Method: Turning now to FIG. 7, treatment of aquatic weeds with the aquatic herbicidal formulation results in both an increased release of nutrients, such as phosphorus, from treated plants and a reduction from the water column of those nutrients released. In one experiment, total phosphorus was extracted from hydrilla and from water in which the hydrilla was located. In one test group, the hydrilla was untreated (control group). In a second test group, the hydrilla was treated with Formulation 1 (5 ppm dipotassium endothall) and, in a third test group, the hydrilla was treated with Aquathol® K (5 ppm dipotassium endothall). In the untreated control group, the plants remained healthy and pulled available phosphorus from the water column, resulting in a lower amount of phosphorus in the water (indicated by the darker shading at the bottom of each column) as compared to groups treated with Formulation 1 and Aquathol® K (as indicated by the lighter shading at the top of each column).

For `O=C([O-])[C@@H]1[C@H](C(=O)[O-])[C@H]2CC[C@@H]1O2.[K+].[K+]` [dipotassium endothall], the “plant's phosphorus released into the water” value was “approximately 27%”.
